Laboratory results: publication PMC10470053, “Diverse p120RasGAP interactions with doubly phosphorylated partners EphB4, p190RhoGAP, and Dok1” (The Journal of Biological Chemistry, 2023)
Several values for one entry are separate records, joined by “and”; a condition that tells them apart may be missing. Equal values may be shown once. Read-outs that look alike come from different tables or passages of the source. One block for each compound: values may come before it. Square brackets hold non-standard residues; d marks the D form. Ends that are not written are not given here. Peptide text beside a SMILES is read from it. pY = N[C@@H](Cc1ccc(OP(=O)(O)O)cc1)C(=O)O

How the values were obtained:
[1] = target: T1, RasGAP^232 (p120RasGAP N-SH2, SH3, C-SH2, residues 174–444) (Homo sapiens, UniProt P20936, C236S/C261S/C372S/C402S); settings: ref ([50]), cited from earlier work
T1 construct: (residues 174–444, termed RasGAP^232); hexahistidine (TEV-cleavable) (N, cleaved yes); made in house; host or cells: E. coli Rosetta (DE3)
T1 sequence (P20936 174-444 C236S/C261S/C372S/C402S): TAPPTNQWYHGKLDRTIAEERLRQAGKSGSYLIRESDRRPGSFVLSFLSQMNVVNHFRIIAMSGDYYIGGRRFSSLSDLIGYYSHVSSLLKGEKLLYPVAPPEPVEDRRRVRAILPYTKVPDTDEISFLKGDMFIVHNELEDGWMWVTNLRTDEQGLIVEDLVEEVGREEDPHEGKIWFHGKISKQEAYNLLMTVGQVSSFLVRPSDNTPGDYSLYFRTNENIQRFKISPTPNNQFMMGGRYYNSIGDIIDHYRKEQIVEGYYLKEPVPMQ
Text: (§1) Table 1 Isothermal titration calorimetry measurements for p120RasGAP with phosphotyrosine-containing binding partners | column: Kd (μM); n; ΔH (kJ/mol); ΔS (J/mol∗K) || We expressed and purified the region of RasGAP encompassing both SH2 domains with a construct that includes the N-SH2, SH3, and C-SH2 domains (residues 174–444, termed RasGAP^232 ([50])) (Figs. 1A and S2A). Separately, we synthesized peptides containing both phosphotyrosine residues for EphB4 and Dok1 (Fig. 1C). Our previous isothermal titration calorimetry (ITC) study assessed the affinity of RasGAP^232 for doubly phosphorylated p190RhoGAP-A peptide and found a Kd of 10 ± 6 nM for tandem engagement of both phosphotyrosines by both SH2 domains ([50]). In our current study, titration of the dou ...

[2] = target: T1, RasGAP^232 (p120RasGAP N-SH2, SH3, C-SH2, residues 174–444); test: Isothermal titration calorimetry, WT RasGAP^232 with phosphopeptides; format: binding
Method: as §1, with “We” for “Table 1 Isothermal titration calorimetry measurements for p120RasGAP with phosphotyrosine-containing binding partners | column: Kd (μM); n; ΔH (kJ/mol); ΔS (J/mol∗K) || We”, “([50]).” for “([50]). In our current study, titration of the dou ...”
Synthetic peptides were purchased from GenScript and contain N-terminal acetylation and C-terminal amidation for stability. The doubly phosphorylated EphB4 peptide (UniProt ID P54760) used in ITC and SAXS experiments contains residues 586 to 602 (GTKV[pTyr]IDPFT[pTyr]EDPNEA). The singly phosphorylated EphB4 peptides pY590 and pY596 used in ITC experiments contain the residues 586 to 595 (GTKV[pTyr]IDPFT) and residues 592 to 602 (DPFT[pTyr]EDPNE), respectively. The p190RhoGAP peptide (UniProt ID Q9NRY4) used in SAXS experiments contains the residues 1083 to 1111 (SD[pTyr]AEPMDAVVKPRNEEENI[pTyr]SVPH). The Dok1 peptide (UniProt ID Q99704) used in ITC and SAXS experiments contains the residues 291 to 322 (SPPAL[pTyr]AEPLDSLRIAPCPSQDSL[pTyr]SDPLDST). Lyophilized peptides were reconstituted in water, and less soluble peptides (pYpYEphB4 and pY590) were spiked with 20 mM Tris pH 8 or 10 mM NaOH to increase solubility. Concentrations of stock peptides are as follows: pYpY190 stock concentration is 10 mM; pYpYEphB4 stock concentration is 2.5 mM; Dok1 stock concentration is 5.5 mM; pY596 stock concentration is 10 mM; and pY590 stock concentration is 8 mM.
Purified RasGAP^232 protein and solubilized peptides were dialyzed overnight against buffer containing 20 mM Tris pH 8, 250 mM NaCl in Slide-A-Lyzer 3 ml 10 kDa molecular weight cut off cassettes (Spectra-Por) and Micro Float-A-Lyzer 0.1 to 0.2 ml, 0.1 to […] molecular weight cut off devices (Spectra-Por), respectively. Protein and peptide concentrations were determined by A280 measured on a Nanodrop Lite (Thermo Fisher Scientific) instrument using extinction coefficients of 45,840 M^−1 cm^−1 for RasGAP^232 (and mutants), 917 M^−1 cm^−1 for the doubly phosphorylated EphB4 peptide, and 458.5 M^−1 cm^−1 for the singly phosphorylated EphB4 peptides as determined by ([74]). Dok1 peptide concentration was confirmed using Amino Acid Analysis performed at UC Davis Molecular Structure Facility. Samples were centrifuged for 10 min at 4 °C and degassed for 7 min using a Degassing Station (TA Instruments). ITC experiments were performed on a Nano ITC (TA Instruments) by loading protein into the 190 μl sample cell and titrating 20 times with 2.5 μl peptide in the titration syringe. Concentrations for sample cell and syringe for each trial are included in Table S1. The data were analyzed in NanoAnalyze software (TA Instrument) using blank (constant) and independent models (https://www.tainstruments.com/itcrun-dscrun-nanoanalyze-software/).

[3] = ITC, average of trials (Table S1)

affinity tighter than individual SH2–phosphotyrosine interactions ([2]; ITC Kd, compared with individual SH2 interactions (Table 1, ref [60])): 15- to 30 fold
Compound: SD[pY]AEPMDAVVKPRNEEENI[pY]SVPH [pYpY p190RhoGAP-A, Doubly phosphorylated p190RhoGAP-A peptide (pY1087, pY1105)]
n ([1]; ITC stoichiometry): 0.6 ± 0.1
Kd ([1]; ITC): 10 ± 6 nM
ΔH ([1]; ITC): -31.1 ± 4.78 kcal/mol
ΔS ([1]; ITC): −281 ± 77 J/mol∗K

n ([2]; ITC stoichiometry, mean ± SD of trials): 0.8 ± 0.1
Kd ([2]; ITC, 20 mM Tris pH 8, 250 mM NaCl, independent model, mean ± SD of trials (n = 4 EphB4, n = 3 Dok1)): 30 ± 20 nM
-T∆S [2, 3]: 8.37 kcal/mol
Ka [2, 3]: 40 µM⁻¹
∆G [2, 3]: -10.3 kcal/mol
ΔH ([2]; ITC, mean ± SD of trials): -18.6 kcal/mol and -18.6 ± 0.72 kcal/mol
ΔS ([2]; ITC, mean ± SD of trials): -120 J/mol∗K and −120 ± 14 J/mol∗K
-T∆S ([2]; trial 1, ITC): 7.17 kcal/mol
Ka ([2]; trial 1, ITC): 63 µM⁻¹
∆G ([2]; trial 1, ITC): -10.5 kcal/mol
∆H ([2]; trial 1, ITC): -17.9 kcal/mol
∆S ([2]; trial 1, ITC): -102 J/mol*K
-T∆S ([2]; trial 2, ITC): 9.32 kcal/mol
Ka ([2]; trial 2, ITC): 21 µM⁻¹
∆G ([2]; trial 2, ITC): -10 kcal/mol
∆H ([2]; trial 2, ITC): -19.4 kcal/mol
∆S ([2]; trial 2, ITC): -131 J/mol*K
-T∆S ([2]; trial 3, ITC): 8.37 kcal/mol
Ka ([2]; trial 3, ITC): 43 µM⁻¹
∆G ([2]; trial 3, ITC): -10.5 kcal/mol
∆H ([2]; trial 3, ITC): -18.6 kcal/mol
∆S ([2]; trial 3, ITC): -116 J/mol*K
Compound: CC[C@H](C)[C@H](NC(=O)[C@H](CCCNC(=N)N)NC(=O)[C@H](CC(C)C)NC(=O)[C@H](CO)NC(=O)[C@H](CC(=O)O)NC(=O)[C@H](CC(C)C)NC(=O)[C@@H]1CCCN1C(=O)[C@H](CCC(=O)O)NC(=O)[C@H](C)NC(=O)[C@H](Cc1ccc(OP(=O)(O)O)cc1)NC(=O)[C@H](CC(C)C)NC(=O)[C@H](C)NC(=O)[C@@H]1CCCN1C(=O)[C@@H]1CCCN1C(=O)[C@H](CO)NC(C)=O)C(=O)N[C@@H](C)C(=O)N1CCC[C@H]1C(=O)N[C@@H](CS)C(=O)N1CCC[C@H]1C(=O)N[C@@H](CO)C(=O)N[C@@H](CCC(N)=O)C(=O)N[C@@H](CC(=O)O)C(=O)N[C@@H](CO)C(=O)N[C@@H](CC(C)C)C(=O)N[C@@H](Cc1ccc(OP(=O)(O)O)cc1)C(=O)N[C@@H](CO)C(=O)N[C@@H](CC(=O)O)C(=O)N1CCC[C@H]1C(=O)N[C@@H](CC(C)C)C(=O)N[C@@H](CC(=O)O)C(=O)N[C@@H](CO)C(=O)N[C@H](C(N)=O)[C@@H](C)O [pYpY Dok1] (Ac-SPPAL[pY]AEPLDSLRIAPCPSQDSL[pY]SDPLDST-NH2)
